# Data: US5837256A, “Method for treatment of Lupus nephritis” (priority 1996, dated 1998)
# What was measured:
# [1] = relative to Seco; cited from earlier work
# [2] = Gut absorption/conversion of SDG after oral intake; type: in vivo; conditions: human or animal
# Text: Enterodiol and enterolactone are trivially referred to as lignans and contain a structural backbone of dibenzylbutane. The most abundant lignan detected in flax is secoisolariciresinol diglucoside (SDG).
# The secoisolariciresinol (Seco) may be used per se or in the form of secoisolariciresinol diglucoside (SDG).
# [3] = cited from earlier work
# [4] = test system: MRL/lpr mouse model of lupus; test: Spleen weight index in MRL/lpr mice (splenomegaly); type: in vivo; conditions: for Spleen Weight/Body Weight Ratio (×100): n = 10
# Procedure: (§1) The MRL/lpr mouse model of lupus was chosen to study the effects of SDG on experimental nephritis since it represents the human disease in terms of immune and inflammatory reactions, and age-related renal function deterioration leading to progressive glomerular scarring.
# (§2) Mice were obtained at 5 weeks of age from Jackson Laboratories, Me., U.S.A., and acclimatized for one week. From 6 weeks of age onwards, all groups were gavaged with 200 μl/day of water. The appropriate amount of SDG was dissolved in the water to administer either the low-dose (600 μg/day) or the high-dose (1200 μg/day) of SDG.
# We therefore examined the effects of low and high dosages of SDG on spleen weight. The spleen weight index was obtained as a ratio of spleen to body weight (×100).
# Data analyzed by ANOVA followed by Bonferroni t-tests
# [5] = Body weight (and food/water intake) of MRL/lpr lupus mice; type: in vivo, MRL/lpr mouse
# Procedure: The MRL/lpr mouse model of lupus was chosen to study the effects of SDG on experimental nephritis since it represents the human disease in terms of immune and inflammatory reactions, and age-related renal function deterioration leading to progressive glomerular scarring. Mice were obtained at 5 weeks of age from Jackson Laboratories, Me., U.S.A., and acclimatized for one week. From 6 weeks of age onwards, all groups were gavaged with 200 μl/day of water. The appropriate amount of SDG was dissolved in the water to administer either the low-dose (600 μg/day) or the high-dose (1200 μg/day) of SDG. This example illustrates the effect of SDG on the body weight of MRL/lpr lupus mice in compared to the control group. The daily dosage was administered over a 17-week period (6 to 22 weeks of age).
# [6] = test system: MRL/lpr mouse model of lupus; test: Glomerular filtration rate (14C-inulin clearance) in MRL/lpr mice; type: in vivo
# Procedure: as §1, §2
# This example illustrates the effect of SDG on the glomerular filtration rate (GFR) assessed by ^14 C-inulin clearance.
# [7] = test system: MRL/lpr mouse model of lupus; test: Onset and prevalence of proteinuria (Albustix) in MRL/lpr lupus mice; type: in vivo
# Procedure: as §1, §2
# Gavaging was commenced at the age of 6 weeks in all groups.
# [8] = test system: MRL/lpr mouse model of lupus; test: Cervical lymph node weight in MRL/lpr mice (lymphadenopathy); type: in vivo; conditions: for cervical lymph node weights: n = 10
# Procedure: as §1, §2
# We therefore examined the effects of low and high dosages of SDG on a deep cervical lymph node in these animals.
# The data was non-normally distributed therefore, a non parametric (Kruskal-Wallis) statistical test was used.
# [9] = test system: LDL cholesterol, cell mediated immunity, PAF production by PMN leucocytes, platelet aggregation; conditions: cited from earlier work
# [10] = Lignan content of urine of mice gavaged with SDG; conditions: after oral SDG 0.6, 1.2 and 4.8 mg/mouse (FIG. 1)
# Procedure: The mice were dosed with the SDG in amounts of 0.6, 1.2 and 4.8 mg/mouse. Urine samples from the mice were then analysed for lignans.
# [11] = High-Lignan gp (1200 μg/day), age wk9
# [12] = High-Lignan gp (1200 μg/day), age wk11
# [13] = High-Lignan gp (1200 μg/day), age wk13
# [14] = High-Lignan gp (1200 μg/day), age wk15
# [15] = High-Lignan gp (1200 μg/day), age wk17
# [16] = High-Lignan gp (1200 μg/day), age wk19
# [17] = High-Lignan gp (1200 μg/day), age wk21
# [18] = Low-Lignan gp (600 μg/day), age wk9
# [19] = Low-Lignan gp (600 μg/day), age wk11
# [20] = Low-Lignan gp (600 μg/day), age wk13
# [21] = Low-Lignan gp (600 μg/day), age wk15
# [22] = Low-Lignan gp (600 μg/day), age wk17
# [23] = Low-Lignan gp (600 μg/day), age wk19
# [24] = Low-Lignan gp (600 μg/day), age wk21
compound,measurement,setting,value
"COc1cc(C[C@@H](CO[C@@H]2O[C@H](CO)[C@@H](O)[C@H](O)[C@H]2O)[C@H](CO[C@@H]2O[C@H](CO)[C@@H](O)[C@H](O)[C@H]2O)Cc2ccc(O)c(OC)c2)ccc1O [SDG, secoisolariciresinol diglucoside]",water solubility compared with Seco,[1],greater water solubility
same,conversion in the gut after oral administration,[2],converted to secoisolariciresinol in the gut
same,metabolism on ingestion,[3]; enzymatic hydrolysis and intestinal microflora,enzymatically hydrolyzed to the aglycone and transformed by intestinal microflora into enterodiol and enterolactone
same,absorption across the gut wall,[3]; generally accepted for diglycosides,not absorbed across the gut wall
same,spleen weight index in the different groups,"[4]; 600 and 1200 μg/day, ANOVA, Bonferroni t-tests",no significant difference
same,Spleen Weight/Body Weight Ratio (×100),"[4]; High-Lignan (1200 μg/day), 14 wks of age, marked a",0.77 ± 0.26
same,Spleen Weight/Body Weight Ratio (×100),"[4]; High-Lignan (1200 μg/day), 22 wks of age, marked a,b",1.74 ± 0.35
same,Spleen Weight/Body Weight Ratio (×100),"[4]; Low-Lignan (600 μg/day), 14 wks of age, marked a",0.93 ± 0.33
same,Spleen Weight/Body Weight Ratio (×100),"[4]; Low-Lignan (600 μg/day), 22 wks of age, marked a,b",1.89 ± 0.39
same,spleen weight gain compared to other groups,"[4]; high dose SDG group, 14 weeks age-interval",moderately smaller spleen weight gain
same,food intake,[5]; 600 and 1200 μg/day,no significant difference
same,water intake,[5]; 600 and 1200 μg/day,no significant difference
same,body weight gain in the different treatment groups,"[5]; 600 and 1200 μg/day, 6 to 22 weeks of age",no significant difference
same,Body Weight,"[5]; High-Lignan gp (1200 μg/day), age w22",38 ± 3 g
same,Body Weight,"[5]; High-Lignan gp (1200 μg/day), age wk5 (before gavage, which began at 6 weeks)",25 ± 2 g
same,Body Weight,"[5]; High-Lignan gp (1200 μg/day), age wk7",26 ± 2 g
same,Body Weight,[5]; [11],27 ± 2 g
same,Body Weight,[5]; [12],29 ± 2 g
same,Body Weight,[5]; [13],31 ± 3 g
same,Body Weight,[5]; [14],34 ± 3 g
same,Body Weight,[5]; [15],37 ± 3 g
same,Body Weight,[5]; [16],38 ± 3 g
same,Body Weight,[5]; [17],39 ± 3 g
same,Body Weight,"[5]; Low-Lignan gp (600 μg/day), age w22",38 ± 3 g
same,Body Weight,"[5]; Low-Lignan gp (600 μg/day), age wk5 (before gavage, which began at 6 weeks)",25 ± 2 g
same,Body Weight,"[5]; Low-Lignan gp (600 μg/day), age wk7",26 ± 3 g
same,Body Weight,[5]; [18],27 ± 3 g
same,Body Weight,[5]; [19],29 ± 3 g
same,Body Weight,[5]; [20],31 ± 3 g
same,Body Weight,[5]; [21],33 ± 3 g
same,Body Weight,[5]; [22],36 ± 3 g
same,Body Weight,[5]; [23],37 ± 3 g
same,Body Weight,[5]; [24],38 ± 4 g
same,dose dependence of benefit on GFR,[6]; 600 and 1200 μg/day,dose-dependant benefit
same,GFR,"[6]; High-Lignan (1200 μg/day), 14 wks of age, n = 9",8.09 ± 2.74 ml/min/kg body weight
same,GFR,"[6]; High-Lignan (1200 μg/day), 22 wks of age, n = 10",5.33 ± 3.16 ml/min/kg body weight
same,GFR,"[6]; Low-Lignan (600 μg/day), 14 wks of age, n = 10",7.41 ± 3.88 ml/min/kg body weight
same,GFR,"[6]; Low-Lignan (600 μg/day), 22 wks of age, n = 10",4.81 ± 1.49 ml/min/kg body weight
same,decline of renal function (GFR),[6]; compared to vehicle treated control group,attenuates the decline of renal function (GFR)
same,% of mice with ≥ 2 proteinuria on Albustix,[7]; [11],0%
same,% of mice with ≥ 2 proteinuria on Albustix,"[7]; High-Lignan gp (1200 μg/day), age wk 10",0%
same,% of mice with ≥ 2 proteinuria on Albustix,[7]; [12],4%
same,% of mice with ≥ 2 proteinuria on Albustix,"[7]; High-Lignan gp (1200 μg/day), age wk 12",4%
same,% of mice with ≥ 2 proteinuria on Albustix,[7]; [13],4%
same,% of mice with ≥ 2 proteinuria on Albustix,"[7]; High-Lignan gp (1200 μg/day), age wk 14",4%
same,% of mice with ≥ 2 proteinuria on Albustix,[7]; [14],7%
same,% of mice with ≥ 2 proteinuria on Albustix,"[7]; High-Lignan gp (1200 μg/day), age wk 16",7%
same,% of mice with ≥ 2 proteinuria on Albustix,[7]; [15],7%
same,% of mice with ≥ 2 proteinuria on Albustix,"[7]; High-Lignan gp (1200 μg/day), age wk 18",21%
same,% of mice with ≥ 2 proteinuria on Albustix,[7]; [16],36%
same,% of mice with ≥ 2 proteinuria on Albustix,"[7]; High-Lignan gp (1200 μg/day), age wk 20",50%
same,% of mice with ≥ 2 proteinuria on Albustix,[7]; [17],43%
same,% of mice with ≥ 2 proteinuria on Albustix,"[7]; High-Lignan gp (1200 μg/day), age wks 6-8",0%
same,% of mice with ≥ 2 proteinuria on Albustix,[7]; [18],0%
same,% of mice with ≥ 2 proteinuria on Albustix,"[7]; Low-Lignan gp (600 μg/day), age wk 10",0%
same,% of mice with ≥ 2 proteinuria on Albustix,[7]; [19],0%
same,% of mice with ≥ 2 proteinuria on Albustix,"[7]; Low-Lignan gp (600 μg/day), age wk 12",0%
same,% of mice with ≥ 2 proteinuria on Albustix,[7]; [20],0%
same,% of mice with ≥ 2 proteinuria on Albustix,"[7]; Low-Lignan gp (600 μg/day), age wk 14",17%
same,% of mice with ≥ 2 proteinuria on Albustix,[7]; [21],21%
same,% of mice with ≥ 2 proteinuria on Albustix,"[7]; Low-Lignan gp (600 μg/day), age wk 16",21%
same,% of mice with ≥ 2 proteinuria on Albustix,[7]; [22],23%
same,% of mice with ≥ 2 proteinuria on Albustix,"[7]; Low-Lignan gp (600 μg/day), age wk 18",38%
same,% of mice with ≥ 2 proteinuria on Albustix,[7]; [23],38%
same,% of mice with ≥ 2 proteinuria on Albustix,"[7]; Low-Lignan gp (600 μg/day), age wk 20",38%
same,% of mice with ≥ 2 proteinuria on Albustix,[7]; [24],27%
same,% of mice with ≥ 2 proteinuria on Albustix,"[7]; Low-Lignan gp (600 μg/day), age wks 6-8",0%
same,onset of proteinuria,[7]; low and high dosages,delay the onset of proteinuria
same,prevalence of proteinuria,[7]; low and high dosages,reduce the prevalence of proteinuria
same,"reducing cell proliferation, a marker of immune and inflammatory activity",[8]; Examples 5 and 6 taken together,moderate benefits
same,cervical lymph node weights,"[8]; High-Lignan (1200 μg/day), 14 wks of age",71 ± 65 mg
same,cervical lymph node weights,"[8]; High-Lignan (1200 μg/day), 22 wks of age, a,b: significantly greater than baseline and than 14 week values",211 ± 58 mg
same,cervical lymph node weights,"[8]; Low-Lignan (600 μg/day), 14 wks of age, a: significantly greater than baseline",97 ± 69 mg
same,cervical lymph node weights,"[8]; Low-Lignan (600 μg/day), 22 wks of age, a: significantly greater than baseline",251 ± 91 mg
same,increase in lymph node weight,"[8]; high dose (1200 μg/day), at/up to 14 weeks of age, Kruskal-Wallis",attenuated the increase in lymph node weight
CC/C=C\C/C=C\C/C=C\CCCCCCCC(=O)O [alpha-linolenic acid],LDL cholesterol,[9],lower
same,PAF production by PMN leucocytes,[9],lower
same,cell mediated immunity,[9],lower
same,platelet aggregation,[9],lower
OC[C@H](Cc1cccc(O)c1)[C@H](CO)Cc1cccc(O)c1 [enterodiol],mammalian lignans in the urine,[10],only traces
COc1cc(CC(CO)C(CO)Cc2ccc(O)c(OC)c2)ccc1O (stereo not drawn) [secoisolariciresinol],secoisolariciresinol concentrations in the urine,[10],SDG dose dependent
